Reference: PubChem BioAssay (NCI)
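96-well plates; 48 h exposure; 5 concentrations. Endpoints by linear interpolation between flanking doses. Not reached: highest tested concentration assigned. Abbreviation: GI50, concentration required for 50% inhibition of growth. TGI: concentration producing complete growth inhibition.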

Tests used:
Assay in all cases: inhibition of tumour cell growth, NCI panel, 48 h
[1] = test system: LOX IMVI melanoma
[2] = test system: UACC-62 melanoma
[3] = test system: SR leukemia
[4] = test system: SW-620 colon
[5] = test system: SF-295 CNS
[6] = test system: SK-MEL-5 melanoma
[7] = test system: HL-60(TB) leukemia
[8] = test system: DU-145 prostate
[9] = test system: UACC-257 melanoma
[10] = test system: HS 578T breast
[11] = test system: SK-OV-3 ovarian
[12] = test system: NCI-H226 lung
[13] = test system: SN12C renal
[14] = test system: EKVX NSCLC
[15] = test system: KM12 colon
[16] = test system: TK-10 renal
[17] = test system: CCRF-CEM leukemia
[18] = test system: HOP-92 NSCLC
[19] = test system: MCF7 breast
[20] = test system: RPMI-8226 leukemia
[21] = test system: OVCAR-8 ovarian
[22] = test system: HCT-15 colon
[23] = test system: ACHN renal
[24] = test system: HOP-62 NSCLC
[25] = test system: HT29 colon
[26] = test system: RXF 393 renal
[27] = test system: SF-268 CNS
[28] = test system: PC-3 prostate
[29] = test system: A498 renal
[30] = test system: MOLT-4 leukemia
[31] = test system: OVCAR-4 ovarian
[32] = test system: MDA-MB-468 breast
[33] = test system: MALME-3M melanoma
[34] = test system: MDA-MB-231 breast
[35] = test system: K-562 leukemia
[36] = test system: CAKI-1 renal
[37] = test system: U251 CNS
[38] = test system: SNB-75 CNS
[39] = test system: 786-0 renal
[40] = test system: T-47D breast
[41] = test system: SNB-19 CNS
[42] = test system: M14 melanoma
[43] = test system: MDA-MB-435
[44] = test system: HCC-2998 colon
[45] = test system: BT-549 breast
[46] = test system: OVCAR-5 ovarian
[47] = test system: A549 NSCLC
[48] = test system: NCI-H23 lung
[49] = test system: IGROV1 ovarian
[50] = test system: OVCAR-3 ovarian
[51] = test system: UO-31 renal
[52] = test system: HCT-116 colon
[53] = test system: NCI-H460 lung
[54] = test system: SK-MEL-28 melanoma
[55] = test system: NCI-H522 lung
[56] = test system: COLO 205 colon
[57] = test system: SF-539 CNS

## CC(C)Sc1nc(NCCc2c[nH]c3ccccc23)c(C#N)c(-c2ccccc2)n1
[1]
  GI50: 4.57 µM
  TGI: 15.3 µM
[2]
  GI50: 14.4 µM
  TGI: 27.6 µM
[3]
  GI50: 5.25 µM
  TGI: > 100 µM
[4]
  GI50: 10.3 µM
  TGI: 26 µM
[5]
  GI50: 13.7 µM
  TGI: 29.6 µM
[6]
  GI50: 11.4 µM
  TGI: 23.6 µM
[7]
  GI50: 13.5 µM
  TGI: > 100 µM
[8]
  GI50: 14.9 µM
  TGI: 34.8 µM
[9]
  GI50: 18.8 µM
  TGI: 41.8 µM
[10]
  GI50: 14.8 µM
  TGI: 56.1 µM
[11]
  GI50: 17.5 µM
  TGI: 45.4 µM
[12]
  GI50: 13 µM
  TGI: 27.3 µM
[13]
  GI50: 13.3 µM
  TGI: 26.2 µM
[14]
  GI50: 12.1 µM
  TGI: 31.1 µM
[15]
  GI50: 5.54 µM
  TGI: 22.1 µM
[16]
  GI50: 22.8 µM
  TGI: 46.8 µM
[17]
  GI50: 9.41 µM
  TGI: > 100 µM
[18]
  GI50: 14.7 µM
  TGI: 33.7 µM
[19]
  GI50: 11.3 µM
  TGI: 25.4 µM
[20]
  GI50: 11.4 µM
  TGI: > 100 µM
[21]
  GI50: 18.2 µM
  TGI: 51.4 µM
[22]
  GI50: 5.38 µM
  TGI: 18.2 µM
[23]
  GI50: 14.3 µM
  TGI: 28 µM
[24]
  GI50: 13.5 µM
  TGI: 27.8 µM
[25]
  GI50: 5.57 µM
  TGI: 18.9 µM
[26]
  GI50: 6.66 µM
  TGI: 20.3 µM
[27]
  GI50: 18.4 µM
  TGI: 48.3 µM
[28]
  GI50: 7.08 µM
  TGI: 43.8 µM
[29]
  GI50: 15.1 µM
  TGI: 29.5 µM
[30]
  GI50: 9.21 µM
  TGI: > 100 µM
[31]
  GI50: 13.4 µM
  TGI: 36.4 µM
[32]
  GI50: 3.12 µM
  TGI: 9.98 µM
[33]
  GI50: 16.5 µM
  TGI: 30.7 µM
[34]
  GI50: 11.8 µM
  TGI: 27.3 µM
[35]
  GI50: 4.85 µM
  TGI: > 100 µM
[36]
  GI50: 11.2 µM
  TGI: 26 µM
[37]
  GI50: 11.6 µM
  TGI: 24.4 µM
[38]
  GI50: 17.8 µM
  TGI: 56.9 µM
[39]
  GI50: 12.6 µM
  TGI: 30.5 µM
[40]
  GI50: 6.54 µM
  TGI: 20.8 µM
[41]
  GI50: 15.8 µM
  TGI: 33.3 µM
[42]
  GI50: 13.8 µM
  TGI: 28.4 µM
[43]
  GI50: 14.4 µM
  TGI: 28.2 µM
[44]
  GI50: 10 µM
  TGI: 22.6 µM
[45]
  GI50: 13.2 µM
  TGI: 26.6 µM
[46]
  GI50: 12.1 µM
  TGI: 25.2 µM
[47]
  GI50: 18.4 µM
  TGI: 42.5 µM
[48]
  GI50: 15.5 µM
  TGI: 30.7 µM
[49]
  GI50: 16.6 µM
  TGI: 32 µM
[50]
  GI50: 15.8 µM
  TGI: 30.8 µM
[51]
  GI50: 14.3 µM
  TGI: 31.2 µM
[52]
  GI50: 5.17 µM
  TGI: 18.5 µM
[53]
  GI50: 8.41 µM
  TGI: 27.9 µM
[54]
  GI50: 14.4 µM
  TGI: 28.6 µM
[55]
  GI50: 15.3 µM
  TGI: 30.9 µM
[56]
  GI50: 8.37 µM
  TGI: 21.2 µM
[57]
  GI50: 13 µM
  TGI: 27 µM
